In article PMC7382147, “An effective UFLC–MS/MS method used to study pharmacokinetics of major constituents of Fukeqianjin formula in rat plasma” (Chinese Medicine, 2020):

Experiments:
[1] = Pharmacokinetic study in rat plasma after oral administration of FKQJF extract (UFLC–MS/MS); assay type: in vivo, Sprague-Dawley (SD) rats; conditions: for AUC(0-inf) / AUC(0-t) / Cmax / half-life / MRT last / MRT inf / Tmax: Sprague-Dawley, oral FKQJF extract, single dose 3.2 g/kg, mean ± SD; for MRT last: read-out: MRT0→t; for MRT inf: read-out: MRT0→∞; for Tmax: read-out: Tmax
Procedure: (§1) Aliquots of 100 μL plasma samples were mixed with 10 μL I.S. samples (1 μg/mL, in MeOH), then added with 500 μL ACN, respectively, and vortexed for 5 min, centrifugated at 10,000 rpm for 10 min, the supernatants were transferred into clean vials and dried in a vacuum centrifugal concentrator at 1200 rpm, 37 °C. After that, 100 μL ACN was added and ultrasonic (frequency 40 kHz, power 250 W) extracted for 5 min to dissolve the dry residue, vortexed for 1 min and centrifugated at 10,000 rpm for 5 min, 1 μL of each final supernatant was injected into UFLC–MS/MS for analysis.
An 8050 UFLC–MS/MS system equipped with LC-30A binary pump, a SIL-30AC autosampler, a SPD-M30A PDA detector, a CTO-20AC column oven, and a 8050 triple quadrupole mass spectrometer with an electrospray ionization source (ESI) was applied to detect and quantify FKQJF compounds in plasma samples. Data were acquired and processed with the software LabSolution (Ver. 5.6).
A Kinetex XB-C18 HPLC column (100 × 2.1 mm, 2.6 μm) linked with an equivalent guard column was used for chromatographic separation. The aqueous phase contained 0.2% formic acid was used as mobile phase A, and organic phase ACN as mobile phase B. The gradient elution method using in this program was: 3–5 min, 28–31% B; 5–7 min, 31–34% B; 7–9 min, 34–65% B; 9–10 min, 65–95% B; 10–11.5 min, 95% B. The flow rate of mobile phase, column temperature and autosampler temperature was 0.4 mL/min, 30 °C and 4 °C, respectively. The injection volume of each sample was set as 1 μL. The main MS spectrum parameters were set as follows: the flow rate of drying gas (N2) was 10.0 L/min; the atomized gas was 3.0 L/min and the heating gas flow rate was 10.0 L/min. The main temperatures of interface, desolvation and heat block was 300 °C, 250 °C and 400 °C, respectively. And, the interface and detector voltage were 3 kV and 1.8 kV.
Rats were divided into a blank group and a FKQJF administration group (6 rats for each), and fasted for 24 h. Each rat of the administration group was given FKQJF extract suspension at a single dose of 3.2 g FKQJF/kg body weight through oral administration in parallel. Blood samples (0.25 mL) were gathered from the orbital venous plexus of each rat, with FKQJF group gathered at 14 serial timepoints (6 rats for each) as 0.083 h, 0.16 h, 0.33 h, 0.5 h, 0.75 h, 1.0 h, 1.5 h, 2 h, 3 h, 4 h, 6 h, 8 h, 12 h and 24 h after drug administration. The blood samples were centrifugated at 6000g for 10 min to isolate plasma and stored at − 20 °C for further analysis.
Data were analyzed using the Drug and Statistics (DAS) Software version 2.0 (DAS 2.0, Mathematical Pharmacology Professional Committee of China, Shanghai, China). The non-compartmental mode was applied to obtain the following PK parameters: area under the plasma concentration–time curve from time zero to the time of last quantifiable concentration (AUC0→t) and area under the plasma concentration–time curve to time infinity (AUC0→∞), the elimination half-life (t1/2), mean retention time to last sampling time (MRT0→t) and mean retention time to infinity (MRT0→∞). The maximum plasma concentration (Cmax) and the time to maximum concentration (Tmax) were observed directly from the concentration–time (C–T) curves and measured data. All data are presented as mean ± SD.

[2] = Ordinary stability of QC samples (room temperature for 8 h); assay type: physicochemical, rat; conditions: plasma QC, room temperature 8 h
Procedure: as §1
(§2) Six replicates of low, medium and high concentrations of quality control (QC) samples were used to verify the stabilities under different conditions including: place at room temperature for 8 h, freeze (− 20 °C) and thaw for three times, and store at − 20 °C for 20 days.

[3] = Freeze–thaw stability of QC samples (−20 °C, three times); assay type: physicochemical, rat; conditions: plasma QC, freeze (−20 °C) and thaw three times
Procedure: as §1, §2

[4] = Long-term stability of QC samples (−20 °C for 20 days); assay type: physicochemical, rat; conditions: plasma QC
Procedure: as §1, §2

[5] = oral FKQJF extract 3.2 g/kg, post dose

Row | Compound | AUC(0-inf) [1] | AUC(0-t) [1] | Cmax [1] | half-life [1] | MRT last [1] | MRT inf [1] | Tmax [1] | shape of the plasma concentration–time curve ([1]; oral FKQJF extract 3.2 g/kg) | Ordinary stability Mean ([2]; spiked 50 ng/mL) | Ordinary stability Mean ([2]; spiked 250 ng/mL) | Ordinary stability Mean ([2]; spiked 500 ng/mL) | Freeze–thaw stability Mean ([3]; spiked 50 ng/mL) | Freeze–thaw stability Mean ([3]; spiked 250 ng/mL) | Freeze–thaw stability Mean ([3]; spiked 500 ng/mL) | Long-term stability Mean ([4]; spiked 50 ng/mL) | Long-term stability Mean ([4]; spiked 250 ng/mL) | Long-term stability Mean ([4]; spiked 500 ng/mL) | also measured
1 | COc1cc(O[C@@H]2O[C@H](CO)[C@@H](O)[C@H](O)[C@H]2O)cc(OC)c1OC [Analyte 1, 3,4,5-trimethoxyphenol-1-O-β-D-glucopyranoside] | 115 ± 15.8 ng·h/mL | 109 ± 11.4 ng·h/mL | 48 ± 4.41 ng/mL | 1.79 ± 0.44 h | 2.6 ± 0.12 h | 3.37 ± 0.26 h | 2 h | double-peaks | 80.92% | 104.48% | 117.94% | 112.34% | 99.57% | 106.56% | 86.86% | 89.00% | 103.76% | –
2 | COC(=O)c1ccc(O)cn1 [Analyte 2, 5-hydroxypicolinic acid methyl ester] | 3110 ± 38.7 ng·h/mL | 2970 ± 169 ng·h/mL | 477 ± 33.3 ng/mL | 5.27 ± 2.94 h | 6.51 ± 0.66 h | 8.09 ± 1.32 h | 2.17 ± 0.76 h | – | 106.33% | 86.35% | 95.34% | 98.92% | 99.07% | 86.48% | 87.08% | 83.50% | 112.17% | –
3 | O=Cc1ccc2n1C[C@]1(C[C@H](O)[C@@H](CO)O1)OC2 [Analyte 3, acortatarin A] | 489 ± 37.6 ng·h/mL | 463 ± 29.5 ng·h/mL | 102 ± 18.4 ng/mL | 2.66 ± 0.69 h | 3.67 ± 0.14 h | 4.32 ± 0.47 h | 2.33 ± 0.58 h | – | 93.52% | 84.19% | 109.98% | 84.84% | 92.61% | 90.89% | 81.68% | 86.77% | 93.19% | –
4 | O=Cc1ccc2n1C[C@@]1(C[C@H](O)[C@@H](CO)O1)OC2 [Analyte 4, 9-epi-acortatarin A] | 92.6 ± 21.4 ng·h/mL | 80.5 ± 9.64 ng·h/mL | 46.8 ± 6.78 ng/mL | 2.2 ± 1.24 h | 2.38 ± 0.24 h | 3.25 ± 0.41 h | 1 ± 0.5 h | – | 108.94% | 116.00% | 84.20% | 91.90% | 107.25% | 102.81% | 118.34% | 81.20% | 104.85% | –
5 | C=C1CC[C@@H]2[C@](C)(CO[C@@H]3O[C@H](CO)[C@@H](O)[C@H](O)[C@H]3O)CCC[C@@]2(C)[C@@H]1CCC1=CCOC1=O [Analyte 5, neoandrographolide] | 505 ± 109 ng·h/mL | 344 ± 43.1 ng·h/mL | 104 ± 14.9 ng/mL | 3.89 ± 0.85 h | 3.51 ± 0.24 h | 7.55 ± 1.93 h | 1 ± 0.43 h | double-peaks | – | – | – | – | – | – | – | – | – | time of first peak of the concentration–time curve [1, 5]: 0 to 1 h; time of second peak of the concentration–time curve [1, 5]: 1.5 to 3 h; Ordinary stability Mean ([2]; spiked 60 ng/mL): 81.32%; Ordinary stability Mean ([2]; spiked 300 ng/mL): 103.80%; Ordinary stability Mean ([2]; spiked 600 ng/mL): 94.88%; Freeze–thaw stability Mean ([3]; spiked 60 ng/mL): 109.12%; Freeze–thaw stability Mean ([3]; spiked 300 ng/mL): 80.22%; Freeze–thaw stability Mean ([3]; spiked 600 ng/mL): 113.31%; Long-term stability Mean ([4]; spiked 60 ng/mL): 113.28%; Long-term stability Mean ([4]; spiked 300 ng/mL): 97.44%; Long-term stability Mean ([4]; spiked 600 ng/mL): 82.61%
6 | COc1cc(/C=C/C(=O)O)ccc1O [Analyte 6, trans-ferulic acid] | 1010 ± 558 ng·h/mL | 466 ± 51.9 ng·h/mL | 79.8 ± 9.43 ng/mL | 10.5 ± 6.63 h | 9.19 ± 1 h | 13.9 ± 9.49 h | 0.08 h | double-peaks | – | – | – | – | – | – | – | – | – | Ordinary stability Mean ([2]; spiked 60 ng/mL): 88.22%; Ordinary stability Mean ([2]; spiked 300 ng/mL): 109.93%; Ordinary stability Mean ([2]; spiked 600 ng/mL): 91.44%; Freeze–thaw stability Mean ([3]; spiked 60 ng/mL): 115.63%; Freeze–thaw stability Mean ([3]; spiked 300 ng/mL): 102.20%; Freeze–thaw stability Mean ([3]; spiked 600 ng/mL): 88.33%; Long-term stability Mean ([4]; spiked 60 ng/mL): 83.07%; Long-term stability Mean ([4]; spiked 300 ng/mL): 91.27%; Long-term stability Mean ([4]; spiked 600 ng/mL): 102.00%
7 | O=c1c(-c2ccc(O)cc2)coc2cc(O[C@@H]3O[C@H](CO)[C@@H](O)[C@H](O)[C@H]3O)cc(O)c12 [Analyte 7, genistin] | 550 ± 70.7 ng·h/mL | 468 ± 48.4 ng·h/mL | 87.7 ± 26.6 ng/mL | 7.68 ± 3.01 h | 9.04 ± 0.68 h | 14.2 ± 3.28 h | 0.17 h | double-peaks | 93.52% | 84.19% | – | 84.84% | 92.61% | – | 118.09% | 104.72% | 97.81% | –
8 | O=C(O)c1ccccc1O [Analyte 8, salicylic acid] | 2140 ± 168 ng·h/mL | 1800 ± 155 ng·h/mL | 433 ± 53.1 ng/mL | 2.7 ± 0.54 h | 2.88 ± 0.15 h | 4.31 ± 0.67 h | 1.67 ± 0.29 h | double-peaks | 95.42% | 108.42% | 103.60% | 80.11% | 102.50% | 88.21% | 109.80% | 114.13% | 87.97% | –
9 | COc1cc2c(cc1O)CC[n+]1cc3c(OC)c(OC)ccc3cc1-2 [Analyte 9, jatrorrhizine] | 2550 ± 277 ng·h/mL | 1090 ± 110 ng·h/mL | 270 ± 24 ng/mL | 9.65 ± 4.91 h | 8.96 ± 0.4 h | 10.5 ± 4.72 h | 1.83 ± 0.29 h | – | – | – | – | – | – | – | – | – | – | Ordinary stability Mean ([2]; spiked 25 ng/mL): 104.79%; Ordinary stability Mean ([2]; spiked 75 ng/mL): 93.01%; Ordinary stability Mean ([2]; spiked 150 ng/mL): 92.51%; Freeze–thaw stability Mean ([3]; spiked 25 ng/mL): 86.77%; Freeze–thaw stability Mean ([3]; spiked 150 ng/mL): 113.07%; Long-term stability Mean ([4]; spiked 25 ng/mL): 80.63%; Long-term stability Mean ([4]; spiked 75 ng/mL): 91.97%; Long-term stability Mean ([4]; spiked 150 ng/mL): 98.06%
